Experimental data from the supplement of paper PMC10307832.

Key:
Assay in all cases: relative viability (nuclei count vs DMSO), 5 days (fraction); higher = more cells survive
[1] = compound: CCn1c(-c2nonc2N)nc2c(C#CC(C)(C)O)ncc(OC[C@H]3CCCNC3)c21 + CCNC(=O)c1noc(-c2cc(C(C)C)c(O)cc2O)c1-c1ccc(CN2CCOCC2)cc1 [Luminespib] (partner 0.01 µM)
Procedure, shortened: (§1)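 Cells from lung cancer lines were seeded into 1536-well plates and, one day later, dosed by pin tool. Treatments were either a single drug or a fixed dose of an anchor drug with five library-drug doses (not always all listed) in √10 steps. After 5 days, nuclei were stained in a one-step fixation (final 0.05% Triton X-100, 1% formaldehyde, 1 ug/ml Hoechst) and counted on 4× images, and relative viability is the treated-to-vehicle nuclei ratio, as the median of duplicate plates.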

BAM7 + Lapatinib = compound: CCOC1=CC=CC=C1N=NC2=C(NN(C2=O)C3=NC(=CS3)C4=CC=CC=C4)C [BAM7] + CS(=O)(=O)CCNCc1ccc(-c2ccc3ncnc(Nc4ccc(OCc5cccc(F)c5)c(Cl)c4)c3c2)o1 [Lapatinib] (partner 2 µM)
Procedure, shortened: as §1

BAM7 + Navitoclax = compound: CCOC1=CC=CC=C1N=NC2=C(NN(C2=O)C3=NC(=CS3)C4=CC=CC=C4)C [BAM7] + CC1(C)CCC(c2ccc(Cl)cc2)=C(CN2CCN(c3ccc(C(=O)NS(=O)(=O)c4ccc(N[C@H](CCN5CCOCC5)CSc5ccccc5)c(S(=O)(=O)C(F)(F)F)c4)cc3)CC2)C1 [Navitoclax] (partner 0.5 µM)
Procedure, shortened: as §1

[2] = compound: CCn1c(-c2nonc2N)nc2c(C#CC(C)(C)O)ncc(OC[C@H]3CCCNC3)c21 + Cc1nc(Nc2ncc(C(=O)Nc3c(C)cccc3Cl)s2)cc(N2CCN(CCO)CC2)n1 [Dasatinib] (partner 0.075 µM)
Procedure, shortened: as §1

Row | Cell Line | relative viability ([1]; first compound 0.01 µM) | relative viability ([1]; first compound 0.03162 µM) | relative viability ([1]; first compound 0.1 µM) | relative viability ([1]; first compound 0.3162 µM) | relative viability ([1]; first compound 1 µM) | relative viability (BAM7 + Lapatinib; first compound 0.5 µM) | relative viability (BAM7 + Lapatinib; first compound 5 µM) | relative viability (BAM7 + Lapatinib; first compound 15.81 µM) | relative viability (BAM7 + Lapatinib; first compound 50 µM) | relative viability (BAM7 + Navitoclax; first compound 0.5 µM) | relative viability (BAM7 + Navitoclax; first compound 5 µM) | relative viability (BAM7 + Navitoclax; first compound 15.81 µM) | relative viability (BAM7 + Navitoclax; first compound 50 µM) | relative viability ([2]; first compound 0.01 µM) | relative viability ([2]; first compound 0.03162 µM) | relative viability ([2]; first compound 0.1 µM) | relative viability ([2]; first compound 0.3162 µM) | relative viability ([2]; first compound 1 µM)
1 | HARA | 0.942 | 0.222 | 0.666 | 0.585 | 0.603 | 0.68 | 0.777 | 0.682 | 0.793 | 1.19 | 1.19 | 1.08 | 1.16 | 0.239 | 0.239 | 0.245 | 0.218 | 0.288
2 | NCI-H838 | 0.309 | 0.308 | 0.296 | 0.227 | 0.304 | 1.03 | 1.04 | 0.908 | 1.14 | 1.2 | 1.19 | 1.14 | 1.12 | 0.29 | 0.267 | 0.283 | 0.296 | 0.279
3 | NCI-H1755 | 0.455 | 0.519 | 0.556 | 0.513 | 0.423 | 1.06 | 1.13 | 1.04 | 0.979 | 1.04 | 1.04 | 0.886 | 1.01 | 0.432 | 0.419 | 0.423 | 0.42 | 0.42
4 | NCI-H322M | 0.784 | 0.847 | 0.855 | 0.665 | 0.682 | 0.659 | 0.593 | 0.577 | 0.572 | 1.3 | 1.22 | 1.18 | 1.06 | 0.246 | 0.233 | 0.245 | 0.264 | 0.271
